In patent US12064426B2, “Selective inhibitors of ROCK1 and ROCK2 protein kinases and uses thereof” (GENOSCO Inc., priority 2021, dated 2024):

Columns and labels:
[1] = target: T1, Recombinant ROCK1 (amino acids 1-477) (Homo sapiens, UniProt Q13464); assay: ROCK inhibition assay, LANCE Ultra TR-FRET kinase assay (ROCK1); assay type: biochemical; conditions: 1 μM ATP, 50 nM ULight-CREBtide substrate
T1 construct: Recombinant ROCK1 (amino acids 1-477); by word order, ROCK1 from Carna Biosciences
Method: (§1) Kinase IC50 was determined through an in vitro assay based on LANCE Ultra TR-FRET (Time-Resolved Fluorescence Resonance Energy Transfer) homogeneous technologies method (Perkin Elmer). Recombinant ROCK1 (amino acids 1-477) and ROCK2 (amino acids 5-554) proteins were purchased from Carna Biosciences and SignalChem. Compound activities were measured by Envision and IC50s were calculated. The assays were performed in white LUMITRAC™ 200 96 well half-area microplates from Greiner Bio-One. The kinase reaction buffer consisted of 50 mM HEPES pH 7.5, 1 mM EGTA, 10 mM MgCl2, 2 mM DTT and 0.01% Tween-20. Kinases were incubated with 50 nM (ULight-CREBtide) substrate in the presence of 1 (ROCK1) or 4 (ROCK2) μM ATP. The kinase reaction was carried out for 1 hour before addition of a stopping buffer to a final of 10 mM EDTA and 0.6 nM of LANCE Ultra Europium anti-phospho-CREB (Ser133) antibody (PerkinElmer TRF0200) in LANCE detection buffer. All assay incubations were performed at room temperature, and the microplates were sealed with polyester film during that time. The reaction was incubated for 1 hour, and the signal was read in Envision in TR-FRET mode (excitation at 320 nm and emission at 615/665 nm).
(§2) As used herein, a way to describe potency of inhibitory activity (nM) is a value of inhibitory activity at 50% (IC50).

[2] = target: T2, Recombinant ROCK2 (amino acids 5-554) (Homo sapiens, UniProt O75116); assay: ROCK inhibition assay, LANCE Ultra TR-FRET kinase assay (ROCK2); assay type: biochemical; conditions: 4 μM ATP, 50 nM ULight-CREBtide substrate
T2 construct: ROCK2 (amino acids 5-554); by word order, ROCK2 from SignalChem
Method: as §1, §2

T2 sequence (O75116 5-554): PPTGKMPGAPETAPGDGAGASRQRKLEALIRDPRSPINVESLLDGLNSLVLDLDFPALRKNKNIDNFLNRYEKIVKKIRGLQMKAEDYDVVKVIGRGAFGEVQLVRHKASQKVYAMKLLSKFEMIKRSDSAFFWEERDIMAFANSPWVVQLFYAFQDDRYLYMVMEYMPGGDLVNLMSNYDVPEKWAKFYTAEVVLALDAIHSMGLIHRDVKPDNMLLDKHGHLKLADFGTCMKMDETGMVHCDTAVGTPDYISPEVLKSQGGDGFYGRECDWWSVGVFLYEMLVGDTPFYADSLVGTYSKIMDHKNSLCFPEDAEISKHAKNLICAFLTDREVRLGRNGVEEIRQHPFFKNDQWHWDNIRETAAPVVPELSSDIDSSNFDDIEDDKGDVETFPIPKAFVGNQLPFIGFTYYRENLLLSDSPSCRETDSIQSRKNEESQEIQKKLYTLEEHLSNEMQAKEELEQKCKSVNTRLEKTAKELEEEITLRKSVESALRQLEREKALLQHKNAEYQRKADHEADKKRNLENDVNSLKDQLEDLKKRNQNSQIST
T1 sequence (Q13464 1-477): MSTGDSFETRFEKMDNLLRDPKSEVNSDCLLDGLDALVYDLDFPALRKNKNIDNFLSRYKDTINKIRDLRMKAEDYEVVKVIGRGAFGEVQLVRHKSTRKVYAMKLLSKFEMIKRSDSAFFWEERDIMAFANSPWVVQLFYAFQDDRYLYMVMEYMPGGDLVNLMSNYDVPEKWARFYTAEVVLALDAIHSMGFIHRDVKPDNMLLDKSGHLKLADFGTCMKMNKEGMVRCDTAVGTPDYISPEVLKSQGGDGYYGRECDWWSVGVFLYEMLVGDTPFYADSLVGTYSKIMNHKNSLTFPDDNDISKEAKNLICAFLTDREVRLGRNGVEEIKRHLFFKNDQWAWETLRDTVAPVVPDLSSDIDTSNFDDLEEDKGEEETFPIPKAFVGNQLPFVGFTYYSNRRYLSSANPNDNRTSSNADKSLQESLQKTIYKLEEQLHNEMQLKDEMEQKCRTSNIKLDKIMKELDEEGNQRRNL

| Compound | IC50 [1] | IC50 [2] |
| --- | --- | --- |
| Cc1nocc1-c1ccc2c(=O)n(Cc3cccc(C(=O)NC4CCN(C5COC5)CC4)c3)ccc2c1 [Compound 88] | 101 to 500 nM | 10 to 100 nM |
| CNC(=O)c1cccc(Cn2ccc3cc(-c4ccoc4C)ccc3c2=O)c1 [Compound 303] | > 501 nM | > 500 nM |
| CNC(=O)c1cccc(Cn2ccc3cc(-c4cnn(C)c4)ccc3c2=O)c1 [Compound 299] | > 501 nM | > 500 nM |
| Cc1nocc1-c1ccc2c(=O)n(Cc3cccc(C(=O)NC(C)C)c3)cnc2c1 [Compound 414] | 101 to 500 nM | 10 to 100 nM |
| Nc1cc(-c2ccc3c(=O)n(Cc4cccc(C(=O)NC5CCOCC5)c4)ccc3c2)ccn1 [Compound 194] | 101 to 500 nM | 10 to 100 nM |
| Cc1nocc1-c1ccc2c(=O)n(Cc3cccc(C(=O)N[C@H]4C[C@H](O)C4)c3)ccc2c1 [Compound 73] | 101 to 500 nM | 10 to 100 nM |
| O=C(Nc1cccc(Cn2ccc3cc(-c4c[nH]nc4C(F)(F)F)ccc3c2=O)c1)C1CCOCC1 [Compound 339] | 101 to 500 nM | 10 to 100 nM |
| Cc1n[nH]cc1-c1ccc2c(=O)n(Cc3cccc(C(=O)NCc4cccc(NS(C)(=O)=O)c4)c3)ccc2c1 [Compound 33] | > 501 nM | 100 to 500 nM |
| O=c1c2ccc(-c3ccncc3)cc2ncn1C(CO)c1cccc(Cl)c1 (stereo not drawn) [Compound 483, 3-(1-(3-chlorophenyl)-2-hydroxyethyl)-7-(pyridin-4-yl)quinazolin-4(3H)-one] | 101 to 500 nM | 10 to 100 nM |
| O=C(NCC1CCOCC1)c1cccc(Cn2ccc3cc(-c4c[nH]nc4C(F)(F)F)ccc3c2=O)c1 [Compound 52] | 11 to 100 nM | < 10 nM |
| COc1cccc(Cn2cnc3cc(-c4ccncc4)ccc3c2=O)c1 [Compound 363] | 11 to 100 nM | 10 to 100 nM |
| [2H]C([2H])([2H])NC(=O)c1cccc(Cn2cnc3cc(-c4cn[nH]c4Br)ccc3c2=O)c1 [Compound 511] | 11 to 100 nM | < 10 nM |
| CC(=O)Nc1cccc(Cn2ccc3cc(-c4c[nH]nc4C(F)(F)F)ccc3c2=O)c1 [Compound 337] | 101 to 500 nM | 10 to 100 nM |
| C[C@H](c1cccc(C(=O)NC2CC2)c1)n1cnc2cc(-c3cn[nH]c3N)ccc2c1=O [Compound 521] | 11 to 100 nM | < 10 nM |
| Cc1[nH]ncc1-c1ccc2c(c1)NCN([C@H](CO)c1cccc(Cl)c1)C2=O [Compound 523, (S)-3-(1-(3-chlorophenyl)-2-hydroxyethyl)-7-(5-methyl-1H-pyrazol-4-yl)-2,3-dihydroquinazolin-4(1H)-one] | > 501 nM | 100 to 500 nM |
| Cc1n[nH]cc1-c1ccc2c(=O)n(Cc3cccc(C(=O)Nc4cccc(OC(F)(F)F)c4)c3)ccc2c1 [Compound 35] | > 501 nM | 100 to 500 nM |
| [2H]C([2H])([2H])NC(=O)c1cccc(Cn2ccc3cc(-c4cc[nH]c4C)ncc3c2=O)c1 [Compound 232] | 11 to 100 nM | < 10 nM |
| COc1cccc(Cn2cnc3cc(-c4ccnc(N)c4)ccc3c2=O)c1 [Compound 364] | 11 to 100 nM | 10 to 100 nM |

| Compound | IC50 [1] | IC50 [2] |
| --- | --- | --- |
| CNC(=O)c1cccc(Cn2ccc3cc(-c4cn[nH]c4F)ccc3c2=O)c1 [Compound 297] | 11 to 100 nM | < 10 nM |
| O=C(NCC1CCOCC1)c1cccc(Cn2cnc3cc(-c4cn[nH]c4C(F)F)ccc3c2=O)c1 [Compound 396] | 11 to 100 nM | < 10 nM |
| Cn1nccc1-c1ccc2c(=O)n(Cc3cccc(C(=O)NCC4CC(O)C4)c3)ccc2c1 (stereo not drawn) [Compound 112] | 101 to 500 nM | 10 to 100 nM |
| [2H]C([2H])([2H])NC(=O)c1cccc(Cn2cnc3cc(-c4cn[nH]c4C(F)F)ccc3c2=O)c1 [Compound 392] | 11 to 100 nM | < 10 nM |
| COc1cccc(Cn2ccc3cc(-c4c[nH]nc4C(F)(F)F)ccc3c2=O)c1 [Compound 6] | 11 to 100 nM | < 10 nM |
| Cn1nccc1-c1ccc2c(=O)n(Cc3cccc(C(=O)Nc4ccc5c(c4)CN(C4CC4)CC5)c3)ccc2c1 [Compound 126] | 11 to 100 nM | < 10 nM |
| CC(=O)Nc1cccc(Cn2ccc3cc(-c4c[nH]nc4C)ccc3c2=O)c1 [Compound 336] | 101 to 500 nM | 10 to 100 nM |
| C[C@H](c1cccc(C(=O)N(C)C)c1)n1cnc2cc(-c3ccnc(N)c3)ccc2c1=O [Compound 482] | > 501 nM | > 500 nM |
| CN1CCC(CNC(=O)c2cccc(Cn3ccc4cc(N5CCOCC5)ccc4c3=O)c2)CC1 [Compound 218] | 101 to 500 nM | 10 to 100 nM |
| O=C(N[C@H]1CC[C@@H](O)CC1)c1cccc(Cn2ccc3cc(N4CCOCC4)ccc3c2=O)c1 [Compound 214] | > 501 nM | 100 to 500 nM |
| CNC(=O)c1cc(F)cc(C(C)n2ccc3cc(-c4cn[nH]c4C(F)(F)F)ccc3c2=O)c1 (stereo not drawn) [Compound 283] | 11 to 100 nM | < 10 nM |
| C[C@H](c1cccc(C(=O)NCCO)c1)n1cnc2cc(-c3ccnn3C)ccc2c1=O [Compound 480] | 101 to 500 nM | 10 to 100 nM |
| CNC(=O)c1cc(Cn2ccc3cc(-c4conc4C)ccc3c2=O)ccn1 [Compound 313] | > 501 nM | 100 to 500 nM |
| CNC(=O)c1cccc(Cn2ccc3cc(-c4cn[nH]c4C(F)F)ncc3c2=O)c1 [Compound 237] | 11 to 100 nM | < 10 nM |
| [2H]C([2H])([2H])NC(=O)c1cccc([C@@H](C)n2cnc3cc(-c4ccnn4C)ccc3c2=O)c1 [Compound 477] | 11 to 100 nM | < 10 nM |
| Cn1nccc1-c1ccc2c(=O)n(Cc3cc(F)cc(C(=O)N[C@H]4CC[C@H](O)CC4)c3)ccc2c1 [Compound 164] | 101 to 500 nM | 10 to 100 nM |
| Cc1nocc1-c1ccc2c(=O)n([C@H](C)c3cccc(C(=O)NCC(F)(F)F)c3)cnc2c1 [Compound 475] | 11 to 100 nM | < 10 nM |

Other lines, results leading:

| IC50 [1] | IC50 [2] | Compound |
| --- | --- | --- |
| 11 to 100 nM | < 10 nM | CNC(=O)c1cccc(Cn2cnc3cc(-c4cn[nH]c4C(F)(F)F)ccc3c2=O)c1 [Compound 367] |
| 11 to 100 nM | < 10 nM | CN1CCC(CNC(=O)c2cccc(Cn3ccc4cc(-c5ccnn5C)ccc4c3=O)c2)CC1 [Compound 171] |
| 11 to 100 nM | < 10 nM | [2H]C([2H])([2H])NC(=O)c1cc(F)cc([C@@H](C)n2cnc3cc(-c4cn[nH]c4C(F)(F)F)ccc3c2=O)c1 [Compound 455] |
| 11 to 100 nM | 10 to 100 nM | CC(C)C(=O)Nc1cccc(Cn2ccc3cc(-c4c[nH]nc4C(F)(F)F)ccc3c2=O)c1 [Compound 338] |
| 11 to 100 nM | < 10 nM | Cn1nccc1-c1ccc2c(=O)n(Cc3cccc(C(=O)N[C@H]4C[C@@H](O)C4)c3)cnc2c1 [Compound 427] |
| 11 to 100 nM | < 10 nM | O=C(NCc1ccc(F)nc1)c1cccc(Cn2ccc3cc(-c4c[nH]nc4C(F)(F)F)ccc3c2=O)c1 [Compound 44] |
| 11 to 100 nM | < 10 nM | CS(=O)(=O)Nc1ccc(CNC(=O)c2cccc(Cn3cnc4cc(-c5cn[nH]c5C(F)(F)F)ccc4c3=O)c2)cc1 [Compound 373] |
| < 10 nM | < 10 nM | NCC(c1cccc(Cl)c1)n1cnc2cc(-c3cn[nH]c3Cl)ccc2c1=O (stereo not drawn) [Compound 496] |
| 11 to 100 nM | < 10 nM | Cc1nocc1-c1ccc2c(=O)n(Cc3cc(F)cc(C(=O)NCC4CCNCC4)c3)ccc2c1 [Compound 150] |
| 11 to 100 nM | < 10 nM | C[C@H](c1cccc(C(=O)NCC2COC2)c1)n1cnc2cc(-c3cn[nH]c3C(F)(F)F)ccc2c1=O [Compound 452] |
| < 10 nM | < 10 nM | Cc1nocc1-c1ccc2c(=O)n(Cc3cccc(C(=O)NCc4ccc(F)nc4)c3)cc(C(C)O)c2c1 (stereo not drawn) [Compound 538] |
| < 10 nM | < 10 nM | Cc1nocc1-c1ccc2c(=O)n(Cc3cccc(C(=O)Nc4ccc5c(c4)CCN(C)C5)c3)ccc2c1 [Compound 97] |
| < 10 nM | < 10 nM | C[C@H](c1cccc(C(=O)NCc2ccncc2)c1)n1cnc2cc(-c3cn[nH]c3C(F)(F)F)ccc2c1=O [Compound 447] |
| < 10 nM | < 10 nM | CN1CCC(NC(=O)c2cc(F)cc(Cn3ccc4cc(-c5c[nH]nc5Cl)ncc4c3=O)c2)CC1 [Compound 261] |
| < 10 nM | < 10 nM | Cc1nocc1-c1ccc2c(=O)n(Cc3cccc(C(=O)Nc4nc5c(s4)CCNC5)c3)ccc2c1 [Compound 93] |
| < 10 nM | < 10 nM | O=C(NC1CCNCC1)c1cccc(Cn2cnc3cc(-c4cn[nH]c4Cl)ccc3c2=O)c1 [Compound 409] |
| < 10 nM | < 10 nM | C[C@H](c1cccc(C(=O)NC2CCN(C)CC2)c1)n1cnc2cc(-c3cn[nH]c3C(F)(F)F)ccc2c1=O [Compound 450] |
| < 10 nM | < 10 nM | O=C(NCC1CCNCC1)c1cccc(Cn2ccc3cc(-c4c[nH]nc4C(F)F)ccc3c2=O)c1 [Compound 57] |
| < 10 nM | < 10 nM | C[C@H](c1cccc(C(=O)NC2CCN(C)CC2)c1)n1cnc2cc(-c3cn[nH]c3Cl)ccc2c1=O [Compound 464] |
